ChEMBL document CHEMBL1201862, “PubChem BioAssay data set” (2004)
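Following 48 hours of exposure in 96-well plates, responses at five concentrations were used to interpolate endpoints linearly. The concentration for 50% growth inhibition is given as GI50.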 Activity calls are given as the source filed them. Rule as the data show it: active = GI50 up to about 1.1 µM and inactive = higher.

Assays:
Assay in all cases: NCI tumour cell line growth inhibition, 48 h
786-0 = test system: 786-0
A498 = test system: A498
A549 = test system: A549
ACHN = test system: ACHN
CAKI-1 = test system: CAKI-1
CCRF-CEM = test system: CCRF-CEM
COLO 205 = test system: COLO 205
DLD-1 = test system: DLD-1
DMS-273 = test system: DMS-273
EKVX = test system: EKVX
HCC 2998 = test system: HCC 2998
HCT-116 = test system: HCT-116
HCT-15 = test system: HCT-15
HL-60 = test system: HL-60
HOP-18 = test system: HOP-18
HOP-62 = test system: HOP-62
HOP-92 = test system: HOP-92
HT-29 = test system: HT-29
IGROV-1 = test system: IGROV-1
K562 = test system: K562
KM-20L2 = test system: KM-20L2
KM12 = test system: KM12
LOX IMVI = test system: LOX IMVI
LXFL 529 = test system: LXFL 529
M14 = test system: M14
M19-MEL = test system: M19-MEL
MOLT-4 = test system: MOLT-4
Malme-3M = test system: Malme-3M
NCI-H226 = test system: NCI-H226
NCI-H23 = test system: NCI-H23
NCI-H460 = test system: NCI-H460
NCI-H522 = test system: NCI-H522
OVCAR-3 = test system: OVCAR-3
OVCAR-4 = test system: OVCAR-4
OVCAR-5 = test system: OVCAR-5
OVCAR-8 = test system: OVCAR-8
RXF 393 = test system: RXF 393
RXF 631 = test system: RXF 631
SF-268 = test system: SF-268
SF-295 = test system: SF-295
SF-539 = test system: SF-539
SK-MEL-28 = test system: SK-MEL-28
SK-MEL-2 = test system: SK-MEL-2
SK-MEL-5 = test system: SK-MEL-5
SK-OV-3 = test system: SK-OV-3
SN12C = test system: SN12C
SNB-19 = test system: SNB-19
SNB-75 = test system: SNB-75
SNB-78 = test system: SNB-78
SR = test system: SR
TK-10 = test system: TK-10
U-251 = test system: U-251
UACC-257 = test system: UACC-257
UACC-62 = test system: UACC-62
UO-31 = test system: UO-31
XF498 = test system: XF498

CCCCC#C[I+]c1ccccc1
GI50 (786-0): 15.5 µM (inactive)
GI50 (A498): 31 µM (inactive)
GI50 (A549): 17.8 µM (inactive)
GI50 (ACHN): 17.2 µM (inactive)
GI50 (CAKI-1): 14 µM (inactive)
GI50 (CCRF-CEM): 4.97 µM (inactive)
GI50 (COLO 205): 15.4 µM (inactive)
GI50 (DLD-1): 19.5 µM (inactive)
GI50 (DMS-273): 14.1 µM (inactive)
GI50 (EKVX): 15.6 µM (inactive)
GI50 (HCC 2998): 20.1 µM (inactive)
GI50 (HCT-116): 16 µM (inactive)
GI50 (HCT-15): 8.28 µM
GI50 (HL-60): 15.4 µM (inactive)
GI50 (HOP-18): 14.5 µM (inactive)
GI50 (HOP-62): 21.5 µM (inactive)
GI50 (HOP-92): 11.7 µM (inactive)
GI50 (HT-29): 15.9 µM (inactive)
GI50 (IGROV-1): 19.9 µM (inactive)
GI50 (K562): 15.2 µM (inactive)
GI50 (KM-20L2): 18.3 µM (inactive)
GI50 (KM12): 14.2 µM (inactive)
GI50 (LOX IMVI): 12.3 µM (inactive)
GI50 (LXFL 529): 12.2 µM (inactive)
GI50 (M14): 15.5 µM (inactive)
GI50 (M19-MEL): 15.7 µM (inactive)
GI50 (MOLT-4): 3.82 µM (inactive)
GI50 (Malme-3M): 14.8 µM (inactive)
GI50 (NCI-H226): 15.5 µM (inactive)
GI50 (NCI-H23): 13.6 µM (inactive)
GI50 (NCI-H460): 11.3 µM (inactive)
GI50 (NCI-H522): 3.53 µM (inactive)
GI50 (OVCAR-3): 16 µM (inactive)
GI50 (OVCAR-4): 14.9 µM (inactive)
GI50 (OVCAR-5): 14.8 µM (inactive)
GI50 (OVCAR-8): 16.1 µM (inactive)
GI50 (RXF 393): 20.1 µM (inactive)
GI50 (RXF 631): 9.71 µM (inactive)
GI50 (SF-268): 19.9 µM (inactive)
GI50 (SF-295): 22.4 µM (inactive)
GI50 (SF-539): 22.4 µM (inactive)
GI50 (SK-MEL-28): 17 µM (inactive)
GI50 (SK-MEL-2): 17.7 µM (inactive)
GI50 (SK-MEL-5): 17.3 µM (inactive)
GI50 (SK-OV-3): 16.4 µM (inactive)
GI50 (SN12C): 14.5 µM (inactive)
GI50 (SNB-19): 16.9 µM (inactive)
GI50 (SNB-75): 15.6 µM (inactive)
GI50 (SNB-78): 21.8 µM (inactive)
GI50 (SR): 15.1 µM (inactive)
GI50 (TK-10): 15.1 µM (inactive)
GI50 (U-251): 16.2 µM (inactive)
GI50 (UACC-257): 16.3 µM (inactive)
GI50 (UACC-62): 17 µM (inactive)
GI50 (UO-31): 16.4 µM (inactive)
GI50 (XF498): 15.3 µM (inactive)
